According to the supplement of paper PMC10307832:

Each cell line was assayed with CC(C)(C)c1cc(NC(=O)Nc2ccc(-c3cn4c(n3)sc3cc(OCCN5CCOCC5)ccc34)cc2)no1 [Quizartinib] + O=C(c1cc(Cc2n[nH]c(=O)c3ccccc23)ccc1F)N1CCN(C(=O)C2CC2)CC1 [Olaparib] (partner 8 µM) (assay: relative viability (nuclei count vs DMSO), 5 days (fraction); higher = more cells survive). Conditions: first compound 0.001 µM.
Summary of the method: (§1)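 Medians of duplicate plates are given as relative viability. That measure is the nuclei count in treated wells divided by the count in vehicle wells. Counts were taken on 4× images of lung cancer cell lines in 1536-well plates, 5 days after pin-tool dosing the day after seeding with one drug alone or a fixed anchor-drug dose plus five library-drug doses (not always all listed) in √10 steps.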

Going from 201T to HCC-44, the relative viability rises from 0.581 to 0.934.

Compared with NCI-H1755, NCI-H2085 is lower in relative viability: 0.832 for the first, 0.707 for the second.

Going from BEN to PC-3 [JPC-3], the relative viability rises from 1.11 to 1.15.

With LC-2-ad the relative viability was 0.697.

Same assay, conditions: first compound 0.003162 µM

First: 201T
Second: HCC-44
The relative viability of the first is lower: 0.802 for the first, 0.982 for the second.

First: NCI-H1755
Second: ChaGo-K-1
The relative viability of the first is higher: 0.809 for the first, 0.415 for the second.

Going from NCI-H2085 to NCI-H460, the relative viability falls from 0.748 to 0.377.

First: BEN
Second: PC-3 [JPC-3]
The relative viability of the first is lower: 1.02 for the first, 1.1 for the second.

With LC-2-ad the relative viability was 0.635.

Same assay, conditions: first compound 0.01 µM

Going from 201T to HCC-44, the relative viability rises from 0.833 to 1.03.

Going from NCI-H1755 to ChaGo-K-1, the relative viability falls from 0.946 to 0.463.

First: NCI-H2085
Second: NCI-H460
The relative viability of the first is higher: 0.789 for the first, 0.573 for the second.

First: BEN
Second: PC-3 [JPC-3]
The relative viability of the first is lower: 0.991 for the first, 1.21 for the second.

Cell Line LC-2-ad has a relative viability of 0.757.

Same assay, conditions: first compound 0.03162 µM

Compared with 201T, HCC-44 is higher in relative viability: 0.87 for the first, 0.981 for the second.

Going from NCI-H1755 to ChaGo-K-1, the relative viability falls from 0.948 to 0.45.

Compared with NCI-H2085, NCI-H460 is lower in relative viability: 0.7 for the first, 0.336 for the second.

Compared with BEN, PC-3 [JPC-3] is higher in relative viability: 0.841 for the first, 1.05 for the second.

Cell Line LC-2-ad has a relative viability of 0.747.

Same assay, conditions: first compound 0.1 µM

First: 201T
Second: HCC-44
The relative viability of the first is lower: 0.857 for the first, 0.952 for the second.

Compared with NCI-H1755, ChaGo-K-1 is lower in relative viability: 0.855 for the first, 0.447 for the second.

First: NCI-H2085
Second: NCI-H460
The relative viability of the first is higher: 0.72 for the first, 0.429 for the second.

First: BEN
Second: PC-3 [JPC-3]
The relative viability of the first is lower: 1.02 for the first, 1.12 for the second.

With LC-2-ad the relative viability was 0.86.

What follows are cell lines tested with COCC[n+]1c2c(n(Cc3cnccn3)c1C)C(=O)c1ccccc1C2=O [YM155] + CS(=O)(=O)N1CCN(Cc2cc3nc(-c4cccc5[nH]ncc45)nc(N4CCOCC4)c3s2)CC1 [Pictilisib] (partner 1 µM) in the same assay as above. Conditions: first compound 0.002 µM.
Summary of the method: as §1

Going from 201T to HCC-44, the relative viability falls from 0.703 to 0.565.

Going from NCI-H1755 to ChaGo-K-1, the relative viability rises from 0.396 to 0.671.

Going from NCI-H2085 to NCI-H460, the relative viability falls from 0.435 to 0.355.

Going from BEN to PC-3 [JPC-3], the relative viability rises from 0.53 to 0.651.

Work on LC-2-ad yielded a relative viability of 0.455.

Same assay, conditions: first compound 0.006325 µM

Compared with 201T, HCC-44 is lower in relative viability: 0.677 for the first, 0.469 for the second.

Compared with NCI-H1755, ChaGo-K-1 is higher in relative viability: 0.437 for the first, 0.65 for the second.

Going from NCI-H2085 to NCI-H460, the relative viability falls from 0.38 to 0.351.

Compared with BEN, PC-3 [JPC-3] is higher in relative viability: 0.644 for the first, 0.792 for the second.

Work on LC-2-ad yielded a relative viability of 0.586.

Same assay, conditions: first compound 0.02 µM

Compared with 201T, HCC-44 is higher in relative viability: 0.672 for the first, 0.674 for the second.

Compared with NCI-H1755, ChaGo-K-1 is higher in relative viability: 0.428 for the first, 0.63 for the second.

Compared with NCI-H2085, NCI-H460 is lower in relative viability: 0.534 for the first, 0.413 for the second.

Compared with BEN, PC-3 [JPC-3] is higher in relative viability: 0.627 for the first, 0.801 for the second.

LC-2-ad showed a relative viability of 0.568.

Same assay, conditions: first compound 0.06325 µM

Compared with 201T, HCC-44 is higher in relative viability: 0.707 for the first, 0.726 for the second.

First: NCI-H1755
Second: ChaGo-K-1
The relative viability of the first is lower: 0.513 for the first, 0.718 for the second.

Compared with NCI-H2085, NCI-H460 is higher in relative viability: 0.429 for the first, 0.451 for the second.

Compared with BEN, PC-3 [JPC-3] is higher in relative viability: 0.578 for the first, 0.759 for the second.

Work on LC-2-ad yielded a relative viability of 0.452.

These cell lines were tested with COCC[n+]1c2c(n(Cc3cnccn3)c1C)C(=O)c1ccccc1C2=O [YM155] + NC(=O)Nc1cc(-c2cccc(F)c2)sc1C(=O)N[C@H]1CCCNC1 [AZD7762] (partner 0.2 µM) in the same assay as above. Conditions: first compound 0.002 µM.
Summary of the method: as §1

First: 201T
Second: HCC-44
The relative viability of the first is lower: 0.592 for the first, 1.04 for the second.

Going from NCI-H1755 to ChaGo-K-1, the relative viability rises from 0.478 to 0.847.

Going from NCI-H2085 to NCI-H460, the relative viability falls from 0.928 to 0.596.

First: BEN
Second: PC-3 [JPC-3]
The relative viability of the first is lower: 0.538 for the first, 0.742 for the second.

LC-2-ad gave a relative viability of 0.8.

Same assay, conditions: first compound 0.006325 µM

Going from 201T to HCC-44, the relative viability rises from 0.639 to 1.06.

Going from NCI-H1755 to ChaGo-K-1, the relative viability rises from 0.445 to 0.822.

First: NCI-H2085
Second: NCI-H460
The relative viability of the first is higher: 0.975 for the first, 0.628 for the second.

Compared with BEN, PC-3 [JPC-3] is higher in relative viability: 0.625 for the first, 0.872 for the second.

LC-2-ad was tested, and the relative viability was 0.842.

Same assay, conditions: first compound 0.02 µM

Compared with 201T, HCC-44 is higher in relative viability: 0.561 for the first, 1.07 for the second.

First: NCI-H1755
Second: ChaGo-K-1
The relative viability of the first is lower: 0.427 for the first, 0.915 for the second.

Going from NCI-H2085 to NCI-H460, the relative viability falls from 0.979 to 0.777.

Going from BEN to PC-3 [JPC-3], the relative viability rises from 0.769 to 0.927.

For LC-2-ad, the relative viability was 0.854.

Same assay, conditions: first compound 0.06325 µM

Going from 201T to HCC-44, the relative viability rises from 0.698 to 0.976.

Compared with NCI-H1755, ChaGo-K-1 is higher in relative viability: 0.493 for the first, 0.821 for the second.

Compared with NCI-H2085, NCI-H460 is lower in relative viability: 0.801 for the first, 0.459 for the second.

Going from BEN to PC-3 [JPC-3], the relative viability rises from 0.692 to 0.697.

For LC-2-ad, the relative viability was 0.841.

Each cell line was assayed with COCC[n+]1c2c(n(Cc3cnccn3)c1C)C(=O)c1ccccc1C2=O [YM155] + Nc1ncn([C@H]2C[C@H](O)[C@@H](CO)O2)c(=O)n1 [Decitabine] (partner 2 µM) in the same assay as above. Conditions: first compound 0.002 µM.
Summary of the method: as §1

First: 201T
Second: HCC-44
The relative viability of the first is lower: 0.825 for the first, 0.936 for the second.

First: NCI-H1755
Second: ChaGo-K-1
The relative viability of the first is higher: 0.697 for the first, 0.473 for the second.

Compared with NCI-H2085, NCI-H460 is lower in relative viability: 0.594 for the first, 0.496 for the second.

Compared with BEN, PC-3 [JPC-3] is higher in relative viability: 0.684 for the first, 0.778 for the second.

LC-2-ad was tested, and the relative viability was 0.773.

Same assay, conditions: first compound 0.006325 µM

First: 201T
Second: HCC-44
The relative viability of the first is lower: 0.838 for the first, 1 for the second.

Going from NCI-H1755 to ChaGo-K-1, the relative viability falls from 0.711 to 0.563.

Going from NCI-H2085 to NCI-H460, the relative viability falls from 0.557 to 0.503.

Compared with BEN, PC-3 [JPC-3] is higher in relative viability: 0.712 for the first, 0.796 for the second.

In the case of LC-2-ad, the relative viability is reported as 0.788.

Same assay, conditions: first compound 0.02 µM

Going from 201T to HCC-44, the relative viability rises from 0.851 to 0.929.

Going from NCI-H1755 to ChaGo-K-1, the relative viability falls from 0.723 to 0.515.

Going from NCI-H2085 to NCI-H460, the relative viability falls from 0.54 to 0.477.

Going from BEN to PC-3 [JPC-3], the relative viability rises from 0.718 to 0.89.

For LC-2-ad, the relative viability was 0.742.

Same assay, conditions: first compound 0.06325 µM

First: 201T
Second: HCC-44
The relative viability of the first is lower: 0.88 for the first, 0.964 for the second.

Going from NCI-H1755 to ChaGo-K-1, the relative viability falls from 0.784 to 0.545.

Going from NCI-H2085 to NCI-H460, the relative viability rises from 0.471 to 0.475.

Compared with BEN, PC-3 [JPC-3] is lower in relative viability: 0.741 for the first, 0.701 for the second.

LC-2-ad was tested, and the relative viability was 0.706.
